Laboratory results: US20160193240A1, “Ulmoside-A: Useful For Prevention Or Cure Of Metabolic Diseases” (COUNCIL OF SCIENTIFIC & INDUSTRIAL RESEARCH, priority 2013, published 2016)

Key:
AdipoR1 = target: T1, AdipoR1 (Mus musculus, UniProt Q91VH1); assay: ULMA-AdipoR interaction assay (ULMA beads, C2C12 myotube membrane extracts, western blot); type: binding; settings: 50 μg membrane extract, 12 hours
T1 construct: C2C12 myotubes (that express both AdipoR1 and AdipoR2) were incubated with 20 μl control or ULMA-beads; endogenous in cells; host or cells: C2C12 myotubes (mouse), plasma membrane extract
T1 sequence (Q91VH1 1-375): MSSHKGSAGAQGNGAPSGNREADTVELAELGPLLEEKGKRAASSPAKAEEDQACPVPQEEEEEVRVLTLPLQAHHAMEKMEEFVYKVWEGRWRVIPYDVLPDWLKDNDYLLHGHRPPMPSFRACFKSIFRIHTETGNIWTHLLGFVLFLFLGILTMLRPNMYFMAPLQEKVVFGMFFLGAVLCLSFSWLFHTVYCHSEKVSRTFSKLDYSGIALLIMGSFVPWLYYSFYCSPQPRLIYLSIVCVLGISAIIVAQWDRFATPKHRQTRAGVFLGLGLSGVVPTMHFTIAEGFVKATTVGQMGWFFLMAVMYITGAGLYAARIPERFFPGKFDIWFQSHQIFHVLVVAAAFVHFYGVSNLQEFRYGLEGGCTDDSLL
Experimental: (§1) B. ULMA interacts with AdipoRs. 20 μl of ULMA beads or control beads were incubated with 50 μg of plasma membrane extracts (prepared using a membrane protein isolation kit; Biomol; according to manufacturer's instructions) prepared from C2C12 myotubes (that expresses both AdipoR1 and AdipoR2) for 12 h on a rotary wheel set at 10 rpm. The supernatant was removed and an aliquot was stored as flowthrough. The pellet was washed 6 times and then the beads were boiled in Lamelli buffer and resolved by 10% denaturing polyacrylamide gel electrophoresis followed by transfer on nitrocellulose membrane and western blotting with anti AdipoR1 or anti-AdipoR2 antibodies. Data represents one of two independent experiments showing identical pattern.
(§2) To investigate whether this enhancement of PPAR ligand activity by ULMA indeed happens through AdipoRs, physical interaction between ULMA and AdipoRs were assessed. The ULMA was immobilized on agarose beads.
(§3) Preparation of ULMA Specific Affinity Matrix:
(§4) ULMA specific Affinity Matrix and Control Matrix were prepared using following protocol.
(§5) 1. 45 mg and 22.5 mg of epoxy-activated agarose beads (sigma) were weighed and put separately in two 1.5 ml eppendorf tubes. Tubes were labeled as tube-1 and tube-2. 2. The beads were washed 6×, 1 ml each, with double distilled water (DDW). […] At this stage beads were ready for incubation with protein source. […]

AdipoR2 = target: T2, AdipoR2 (Mus musculus, UniProt Q8BQS5); assay: as above; type: binding; settings: 50 μg membrane extract, 12 hours
T2 construct: C2C12 myotubes (that express both AdipoR1 and AdipoR2) were incubated with 20 μl control or ULMA-beads; endogenous in cells; host or cells: C2C12 myotubes (mouse), plasma membrane extract
T2 sequence (Q8BQS5 1-386): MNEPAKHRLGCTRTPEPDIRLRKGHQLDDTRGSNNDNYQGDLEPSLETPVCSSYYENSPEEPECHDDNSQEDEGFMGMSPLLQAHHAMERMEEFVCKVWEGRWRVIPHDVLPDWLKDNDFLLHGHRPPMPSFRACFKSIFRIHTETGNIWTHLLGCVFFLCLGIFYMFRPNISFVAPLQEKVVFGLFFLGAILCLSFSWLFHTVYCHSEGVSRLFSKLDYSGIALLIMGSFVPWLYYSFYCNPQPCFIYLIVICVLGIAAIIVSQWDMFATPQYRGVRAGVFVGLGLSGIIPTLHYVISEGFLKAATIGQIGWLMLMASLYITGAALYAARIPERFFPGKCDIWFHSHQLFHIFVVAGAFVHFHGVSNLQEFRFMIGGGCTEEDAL
Experimental: as §1, §2, §3, §4, §5

O=C1c2c(cc(O)c([C@@H]3O[C@H](CO)[C@@H](O)[C@H](O)[C@H]3O)c2O)O[C@@H](c2ccc(O)c(O)c2)[C@@H]1O [ULMA, (2S,3S)-(+)-3′,4′,5,7-tetrahydroxydihydroflavonol-6-C-β-D-glucopyranoside]
AdipoR1 detection on ULMA beads vs control beads (AdipoR1): detected on ULMA beads
AdipoR2 detection on ULMA beads vs control beads (AdipoR2): detected on ULMA beads
